Assay results published in patent publication US9598433B2, “Hepatitis C virus inhibitors” (BRISTOL-MYERS SQUIBB COMPANY, priority 2012, dated 2017).
Like-named read-outs stand apart in the source and are kept apart here.

Key:
[1] = tested on: HCV genotype 1b (Con1) replicon in HUH-7 cells; assay: HCV replicon luciferase reporter assay, genotype 1b; format: cell-based; conditions: Hepatitis C virus, 72 h, genotype 1b replicon, 3 days incubation
How it was run: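 Replication was read as Renilla luciferase signal, using 7.5 μM EnduRen substrate with a 2-h incubation at 37 °C. The signal came from a HUH-7 line constitutively expressing a luciferase-tagged 1b (Con1) replicon carrying S1179I.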

[2] = tested on: HCV genotype 1a (H77 strain) replicon in HUH-7 cells; assay: HCV replicon luciferase reporter assay, genotype 1a; format: cell-based; conditions: Hepatitis C virus, 72 h, genotype 1a replicon, 3 days incubation
How it was run: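 Stable HUH-7 line carrying luciferase-reporter genotype 1a (H77) replicon with adaptive NS3 P1496L and NS5A S2204I mutations; 3.0×10^3 cells/well in 4% FCS, 0.5% DMSO, twenty-point 3-fold titration, 3 days at 37 °C. Renilla luminescence with 7.5 μM EnduRen; EC50 by four-parameter logistic fit; CC50 by multiplexed Cell Titer-Blue.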

SMILES | EC50 ([1]; read-out: LE_1b (EC50, range)) [nM] | EC50 ([2]; read-out: LE_1a (EC50, range)) [nM] | EC50 ([1]; read-out: LE_1b (EC50)) [nM] | EC50 ([2]; read-out: LE_1a (EC50)) [nM]
C[C@@H]1CC/C=C\[C@@H]2C[C@@]2(C(=O)NS(=O)(=O)C2(C)CC2)NC(=O)[C@@H]2C[C@@H](Oc3nccc4c5c(ccc34)OCCO5)CN2C(=O)[C@@H](NC(=O)OC(C)(C)C(C)(F)F)[C@H](C)O1 [Compound 2010, 3,3-difluoro-2-methylbutan-2-yl ((2R,6S,7S,9R,13aS,14aR,16aS,Z)-2-((2,3-dihydro[1,4]dioxino[2,3-f]isoquinolin-7-yl)oxy)-7,9-dimethyl-14a-(((1-methylcyclopropyl)sulfonyl)carbamoyl)-5,16-dioxo-2,3,5,6,7,9,10,11,13a,14,14a,15,16,16a-tetradecahydro-1H-cyclopropa[i]pyrrolo[1,2-e][1,5,8]oxadiazacyclopentadecin-6-yl)carbamate] | 0.51 to 1 | 1.01 to 5 | – | –
COc1ccc2c(O[C@@H]3C[C@H]4C(=O)N[C@]5(C(=O)NS(=O)(=O)C6(C)CC6)C[C@H]5/C=C\CC[C@@H](C)O[C@@H](C)[C@H](NC(=O)OC(C)(C)C(F)(F)F)C(=O)N4C3)nc(-c3ccc(OC(C)C)cn3)cc2c1 [Compound 2011, 1,1,1-trifluoro-2-methylpropan-2-yl ((2R,6S,7S,9R,13a5,14aR,16aS,Z)-2-((3-(5-isopropoxypyridin-2-yl)-6-methoxyisoquinolin-1-yl)oxy)-7,9-dimethyl-14a-(((1-methylcyclopropyl)sulfonyl)carbamoyl)-5,16-dioxo-2,3,5,6,7,9,10,11,13a,14,14a,15,16,16a-tetradecahydro-1H-cyclopropa[i]pyrrolo[1,2-e][1,5,8]oxadiazacyclopentadecin-6-yl)carbamate] | 0.1 to 0.5 | 0.51 to 1 | – | –
COc1ccc2c(O[C@@H]3C[C@H]4C(=O)N[C@]5(C(=O)NS(=O)(=O)C6(C)CC6)C[C@H]5/C=C\CC[C@@H](C)O[C@@H](C)[C@H](NC(=O)OC(C)(C)C(C)(F)F)C(=O)N4C3)nc(-c3ccc(OC(C)C)cn3)cc2c1 [Compound 2012, 3,3-difluoro-2-methylbutan-2-yl ((2R,6S,7S,9R,13a5,14aR,16aS,Z)-2-((3-(5-isopropoxypyridin-2-yl)-6-methoxyisoquinolin-1-yl)oxy)-7,9-dimethyl-14a-(((1-methylcyclopropyl)sulfonyl)carbamoyl)-5,16-dioxo-2,3,5,6,7,9,10,11,13a,14,14a,15,16,16a-tetradecahydro-1H-cyclopropa[i]pyrrolo[1,2-e][1,5,8]oxadiazacyclopentadecin-6-yl)carbamate] | 0.1 to 0.5 | 0.1 to 0.5 | – | –
COc1ccc2c(O[C@@H]3C[C@H]4C(=O)N[C@]5(C(=O)NS(=O)(=O)C6(CF)CC6)C[C@H]5/C=C\CC[C@@H](C)O[C@@H](C)[C@H](NC(=O)OC(C)(C)C(F)(F)F)C(=O)N4C3)nccc2c1 [Compound 2013, 1,1,1-trifluoro-2-methylpropan-2-yl ((2R,6S,7S,9R,13a5,14aR,16aS,Z)-14a-(((1-(fluoromethyl)cyclopropyl)sulfonyl)carbamoyl)-2-((6-methoxyisoquinolin-1-yl)oxy)-7,9-dimethyl-5,16-dioxo-2,3,5,6,7,9,10,11,13a,14,14a,15,16,16a-tetradecahydro-1H-cyclopropa[i]pyrrolo[1,2-e][1,5,8]oxadiazacyclopentadecin-6-yl)carbamate] | 0.51 to 1 | 1.01 to 5 | – | –
COc1ccc2c(O[C@@H]3C[C@H]4C(=O)N[C@]5(C(=O)NS(=O)(=O)C6(CF)CC6)C[C@H]5/C=C\CC[C@@H](C)O[C@@H](C)[C@H](NC(=O)OC(C)(C)C(C)(F)F)C(=O)N4C3)nccc2c1 [Compound 2014, 3,3-difluoro-2-methylbutan-2-yl ((2R,6S,7S,9R,13aS,14aR,16aS,Z)-14a-(((1-(fluoromethyl)cyclopropyl)sulfonyl)carbamoyl)-2-((6-methoxyisoquinolin-1-yl)oxy)-7,9-dimethyl-5,16-dioxo-2,3,5,6,7,9,10,11,13a,14,14a,15,16,16a-tetradecahydro-1H-cyclopropa[i]pyrrolo[1,2-e][1,5,8]oxadiazacyclopentadecin-6-yl)carbamate] | 0.51 to 1 | 1.01 to 5 | 0.66 | 2.38
COc1cnc(O[C@@H]2C[C@H]3C(=O)N[C@]4(C(=O)NS(=O)(=O)C5(CF)CC5)C[C@H]4/C=C\CC[C@@H](C)O[C@@H](C)[C@H](NC(=O)OC(C)(C)C(F)(F)F)C(=O)N3C2)c2ccccc12 [Compound 2015, 1,1,1-trifluoro-2-methylpropan-2-yl ((2R,6S,7S,9R,13a5,14aR,16aS,Z)-14a-(((1-(fluoromethyl)cyclopropyl)sulfonyl)carbamoyl)-2-((4-methoxyisoquinolin-1-yl)oxy)-7,9-dimethyl-5,16-dioxo-2,3,5,6,7,9,10,11,13a,14,14a,15,16,16a-tetradecahydro-1H-cyclopropa[i]pyrrolo[1,2-e][1,5,8]oxadiazacyclopentadecin-6-yl)carbamate] | 0.51 to 1 | 1.01 to 5 | – | –
COc1cnc(O[C@@H]2C[C@H]3C(=O)N[C@]4(C(=O)NS(=O)(=O)C5(CF)CC5)C[C@H]4/C=C\CC[C@@H](C)O[C@@H](C)[C@H](NC(=O)OC(C)(C)C(F)F)C(=O)N3C2)c2ccccc12 [Compound 2016, 1,1-difluoro-2-methylpropan-2-yl ((2R,6S,7S,9R,13aS,14aR,16aS,Z)-14a-(((1-(fluoromethyl)cyclopropyl)sulfonyl)carbamoyl)-2-((4-methoxyisoquinolin-1-yl)oxy)-7,9-dimethyl-5,16-dioxo-2,3,5,6,7,9,10,11,13a,14,14a,15,16,16a-tetradecahydro-1H-cyclopropa[i]pyrrolo[1,2-e][1,5,8]oxadiazacyclopentadecin-6-yl)carbamate] | 0.51 to 1 | 1.01 to 5 | – | –
COc1cc(F)cc2c(O[C@@H]3C[C@H]4C(=O)N[C@]5(C(=O)NS(=O)(=O)C6(C)CC6)C[C@H]5/C=C\CC[C@@H](C)O[C@@H](C)[C@H](NC(=O)OC(C)(C)C(F)(F)F)C(=O)N4C3)nccc12 [Compound 2017, 1,1,1-trifluoro-2-methylpropan-2-yl ((2R,6S,7S,9R,13aS,14aR,16aS,Z)-2-((7-fluoro-5-methoxyisoquinolin-1-yl)oxy)-7,9-dimethyl-14a-(((1-methylcyclopropyl)sulfonyl)carbamoyl)-5,16-dioxo-2,3,5,6,7,9,10,11,13a,14,14a,15,16,16a-tetradecahydro-1H-cyclopropa[i]pyrrolo[1,2-e][1,5,8]oxadiazacyclopentadecin-6-yl)carbamate] | 0.1 to 0.5 | 0.51 to 1 | 0.42 | 0.89
COc1cc(F)cc2c(O[C@@H]3C[C@H]4C(=O)N[C@]5(C(=O)NS(=O)(=O)C6(C)CC6)C[C@H]5/C=C\CC[C@@H](C)O[C@@H](C)[C@H](NC(=O)OC(C)(C)C(C)(F)F)C(=O)N4C3)nccc12 [Compound 2018, 3,3-difluoro-2-methylbutan-2-yl ((2R,6S,7S,9R,13aS,14aR,16aS,Z)-2-((7-fluoro-5-methoxyisoquinolin-1-yl)oxy)-7,9-dimethyl-14a-(((1-methylcyclopropyl)sulfonyl)carbamoyl)-5,16-dioxo-2,3,5,6,7,9,10,11,13a,14,14a,15,16,16a-tetradecahydro-1H-cyclopropa[i]pyrrolo[1,2-e][1,5,8]oxadiazacyclopentadecin-6-yl)carbamate] | 0.1 to 0.5 | 0.51 to 1 | – | –
